This is an account of results in publication PMC8474119, “Discovery and SAR Evolution of Pyrazole Azabicyclo[3.2.1]octane Sulfonamides as a Novel Class of Non-Covalent N-Acylethanolamine-Hydrolyzing Acid Amidase (NAAA) Inhibitors for Oral Administration” (Journal of Medicinal Chemistry, 2021).

Series [1] is described as follows: Aqueous kinetic solubility assay. Type of series: physicochemical. Conditions: PBS buffer, pH 7.4, n = 3. The protocol: The aqueous kinetic solubility was determined from a 10 mM DMSO stock solution of test compound (39 or 50) in PBS buffer at pH 7.4. The study was performed by incubating an aliquot of 10 mM DMSO stock solution in PBS (pH 7.4) to a target concentration of 250 μM (2.5% DMSO). The incubation was carried out under shaking at 25 °C for 24 h, followed by centrifugation at 21,100g for 30 min. The supernatant was further diluted (4:1) with CH3CN, and the dissolved test compound was quantified by UV at 215 nm on a Waters ACQUITY UPLC-MS system consisting of a single quadrupole detector (SQD) mass spectrometer equipped with an electrospray ionization interface and a photodiode array detector (PDA) from Waters Inc. (Milford, MA, USA). Electrospray ionization in positive mode was used in the mass scan range 100–500 Da. The PDA range was 210–400 nm. The analyses were run on an ACQUITY UPLC BEH C18 column (50 × 2.1 mm ID, particle size 1.7 μm) with a VanGuard BEH C18 precolumn (5 × 2.1 mm ID, particle size 1.7 μm), using 10 mM NH4OAc in H2O at pH 5 adjusted with AcOH (A) and 10 mM NH4OAc in CN–H2O (95:5) at pH 5 (B) as the mobile phase.

The nature of series [2]: Liver microsomal stability assay (NADPH), rat. Conditions: male, Sprague-Dawley, pH 7.5, rat liver microsomes, read-out: LM_NADPH t1/2. Type of series: in vitro ADME. The protocol: Pooled CD1 mouse (M1000, male), IGS Sprague-Dawley rat (R1000, male), and human (H1000, male) liver microsomes were purchased from SEKISUI XenoTech. 10 mM DMSO stock solution of the test compound (39 or 50) was preincubated at 37 °C for 15 min with mouse, rat, or human liver microsomes in 0.1 M Tris-HCl buffer (pH 7.5) with 10% DMSO. The final concentration was 4.6 μM. After preincubation, the cofactor (NADPH) was added to the incubation mixture, and the incubation was continued at 37 °C for 1 h. At each time point (0, 5, 15, 30, and 60 min), 30 μL of incubation mixture was diluted with 200 μL cold CH3CN spiked with 200 nM of an appropriate internal standard, followed by centrifugation at 3.270g for 15 min. […] A reference incubation mixture of each specie (microsomes without cofactors) was prepared for each test compound and analyzed at t = 0 and 60 min in order to verify the compound stability in the matrix. […] The supernatants were analyzed by LC–MS/MS on a Waters ACQUITY UPLC-MS TQD system consisting of a triple quadrupole detector (TQD) mass spectrometer equipped with an electrospray ionization interface and a photodiode array eλ detector (PDA) from Waters Inc. (Milford, MA, USA). […] The percentage of test compound remaining at each time point relative to t = 0 was calculated by the response factor on the basis of the internal standard peak area. […]
Background: Liver microsomes are a subcellular fraction often used to study metabolism.

The target in a further series is T1, h-NAAA (Homo sapiens, UniProt Q02083).
T1 construct: made in house; host or cells: HEK-293 cells stably overexpressing human NAAA; enzyme-enriched (lysosomal) lysate
T1 sequence (Q02083 29-125 limits assumed): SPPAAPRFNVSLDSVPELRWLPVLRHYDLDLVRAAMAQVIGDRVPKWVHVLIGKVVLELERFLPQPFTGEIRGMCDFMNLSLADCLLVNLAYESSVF
T1 sequence (Q02083 126-359 limits assumed): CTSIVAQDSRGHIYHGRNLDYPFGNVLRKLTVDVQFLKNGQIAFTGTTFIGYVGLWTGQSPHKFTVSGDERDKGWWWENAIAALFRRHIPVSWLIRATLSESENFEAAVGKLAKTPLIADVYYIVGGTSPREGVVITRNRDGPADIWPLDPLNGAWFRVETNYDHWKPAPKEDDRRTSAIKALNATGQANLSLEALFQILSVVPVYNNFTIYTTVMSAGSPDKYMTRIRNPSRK
The experiment in a line: Competitive activity-based protein profiling (ABPP) with probe ARN14686. Type of series: binding. The protocol:
At the end of this preincubation time, the activity-based probe undec-10-ynyl-N-[(S)-2-oxoazetidin-3-yl]carbamate (ARN14686, see Figure S1, Supporting Information)[45] was added at 20 μM for 15 min or for 4 h at 37 °C. Next, click chemistry reaction was performed by adding the following reagents at the indicated final concentrations: 100 μM azide-PEG3-alexa fluor 545 (CLK-AZ109, Jena Bioscience), 1.0 mM tris(2-carboxyethyl)phosphine (TCEP) hydrochloride, 100 μM tris-[(1-benzyl-1H-1,2,3-triazol-4-yl)methyl]amine (TBTA), and 1 mM CuSO4·5H2O.[62] TBTA was first dissolved in DMSO at 83.5 mM and then diluted with four volumes of tert-butanol. The reaction was mixed by vortexing and incubated 2 h at 25 °C. Samples (10 μL) were analyzed by SDS-PAGE, and gel fluorescence was scanned at 532 nm wavelength (ChemidDoc MP, BIO-RAD).

A word on the kinetic solubility: it is solubility judged after dilution from a stock solution rather than from solid.

Bounds are passed on as bounds.

For the compound `CCCCc1ccc(O[C@H]2C[C@H]3CC[C@@H](C2)N3S(=O)(=O)c2c(C)n[nH]c2C)cc1` [Compound 39, (1R,3r,5S)-3-(4-Butylphenoxy)-8-((3,5-dimethyl-1H-pyrazol-4-yl)sulfonyl)-8-azabicyclo[3.2.1]octane], in series [1], the solubility (kinetic) at 24 h was less than 1 µM. For the same compound, in series [2], the half-life at 1 h, 4.6 µM was 13 min.
In series [1], `CCOCc1cnc(O[C@H]2C[C@H]3CC[C@@H](C2)N3S(=O)(=O)c2c(C)n[nH]c2C)cn1` [Compound 50, (1R,3r,5S)-8-((3,5-Dimethyl-1H-pyrazol-4-yl)sulfonyl)-3-((5-(ethoxymethyl)pyrazin-2-yl)oxy)-8-azabicyclo[3.2.1]octane] showed a solubility (kinetic) at 24 h of more than 250 µM. Further, the half-life at 1 h, 4.6 µM in series [2] amounted to 48 min. Further, the “effect on h-NAAA labeling by ABP ARN14686, 15 min probe incubation” value on h-NAAA (20 μM, lysosomal extracts of h-NAAA overexpressing HEK-293 cells, probe 15 min) is “prevented the binding”. The “effect on h-NAAA labeling by ABP ARN14686, 4 h probe incubation” value at h-NAAA (20 μM, lysosomal extracts of h-NAAA overexpressing HEK-293 cells, probe 4 h) was “almost totally reverted”. Also, the “mode of interaction with h-NAAA” value on h-NAAA (competitive ABPP) is “non-covalent interaction with h-NAAA”.
